Experimental data as given in PubChem BioAssay AID1159562 (GlaxoSmithKline (GSK), 2015).
Calls of active or inactive are those of the source. How the calls were made is not given here.

Test system: Trypanosoma brucei growth inhibition, luminescence
Experiment: antitrypanosomal activity against T. brucei – luminescence (AID 1159562);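 further: parasites grew with compound for 24 h before the luminescence read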

Structure (SMILES) | IC50
O=C(O)[C@H]1C[C@@H]1c1ccc(-c2ccc(CN(CCc3ccccn3)C(=O)C3CCC3)cc2)cc1 | 0.79 µM
Cc1[nH]c2ccccc2c(=O)c1Cc1c(C)[nH]c2ccccc2c1=O | > 40 µM (inactive)
Cc1cccc(N2CCCN(Cc3c[nH]c4ccccc34)CC2)n1 | 13 µM
Cc1nc2nc(C)c(Cc3ccc(C(C)C)cc3)c(=O)n2[nH]1 | > 40 µM (inactive)
O=C(Nc1cccc(F)c1)N1CCC(Oc2cccc(-c3cccnc3)c2)CC1 | > 40 µM (inactive)
O=C(NC(c1ccc(Cl)cc1)c1cnccn1)C1CCN(C(=O)Nc2cccc(C(F)(F)F)c2)CC1 (stereo not given) | 6.3 µM
Cn1cc(CN2CCN(c3ccc4c(c3)CCN(C(=O)[C@H]3C[C@@H]3c3ccccc3)CC4)CC2)cn1 | 40 µM
O=C(c1cnn(-c2ccccc2)n1)N1CCCC(n2ccnc2)C1 (stereo not given) | 32 µM
CCOc1ccc(CC(=O)N2c3ccccc3CC2C(=O)NC)cc1 (stereo not given) | 0.5 µM
CNS(=O)(=O)c1ccccc1Nc1nc(Nc2ccnn2C)ncc1Cl | 0.1 µM
CC(Cn1ccnc1)NC(=O)COc1ccc(Cl)c(Cl)c1 (stereo not given) | > 40 µM (inactive)
Cc1[nH]nc(-c2nc3ccccc3[nH]2)c1C(=O)NC1CCCNC1 (stereo not given) | 0.5 µM
Cc1cc(N2CCc3ccccc3C2)nc(Nc2ccc(S(=O)(=O)N3CCOCC3)cc2)n1 | > 40 µM (inactive)
CCOc1ccc2nc(NC(=O)c3ccc([N+](=O)[O-])s3)sc2c1 | 2.5 µM
O=C(NCC1CCCCN1C(=O)c1cccc2ccccc12)c1ccccc1 (stereo not given) | 0.4 µM
Cc1ccc(-c2csc(NC(=O)C=Cc3ccc(S(=O)(=O)N4CCOCC4)cc3)n2)o1 | 5 µM
COc1cnc2ccc(=O)n(CCN3CCC(NC(=O)Cc4ccc(Cl)c(Cl)c4)CC3)c2c1 | 0.5 µM
COc1ccc2ncc(=O)n(CCN3CCOC(CNCc4ccc(C(F)(F)F)cc4F)C3)c2n1 (stereo not given) | 2.5 µM
CCN(CC)S(=O)(=O)c1ccc(Cn2nc(C(=O)Nc3ccncn3)c3ccccc32)cc1 | > 40 µM (inactive)
O=C(CSc1nnc2ccc(-c3ccc(F)cc3)nn12)N1CCCCC1 | 0.5 µM
COc1ccc(-c2cc(C)no2)cc1S(=O)(=O)Nc1ccc(F)c(Cl)c1 | 25 µM
CCN(CC)S(=O)(=O)c1ccc(C(=O)Nc2cc(C)nn2-c2nc(C)c(C)c(=O)[nH]2)cc1 | 0.32 µM
CN(Cc1ccc(C(N)=O)cc1)C(c1ccc(F)cc1)c1cccnc1 (stereo not given) | > 40 µM (inactive)
CS(=O)(=O)NC1CCC(Oc2cc3cnccc3cc2-c2ccsc2)CC1 (stereo not given) | > 40 µM (inactive)
CN(C(=O)Nc1ccc2c(c1)CCN(C1CCC1)CC2)c1ccc(C#N)cc1 | 0.63 µM
Cc1nn(C2CCS(=O)(=O)C2)c(C)c1CN(C)C(=O)C=Cc1sc2ccccc2c1Cl (stereo not given) | 25 µM
Cc1cc(Br)cc(C(=O)c2c(C(C)C)c(=O)[nH]c(=O)n2Cc2ccnc(N)c2)c1 | 25 µM

Structure (SMILES) | IC50
O=C(CN(Cc1ccccn1)Cc1ccccn1)NC1Cc2ccccc2C1 | 13 µM
c1ccc2sc(Nc3nc4ncccc4[nH]3)nc2c1 | 1.6 µM
C=CCOCC1Cn2nc([N+](=O)[O-])nc2O1 (stereo not given) | > 40 µM (inactive)
COCc1cc(Nc2ccc(Cl)cc2)nc(-c2ccccn2)n1 | > 40 µM (inactive)
COc1ccc(C2CC(c3ccc(NS(C)(=O)=O)cc3)=NN2C(=O)c2cccs2)cc1OC (stereo not given) | 25 µM
O=C(CN1CCC2(O)CCCCC2C1c1ccc2c(c1)OCO2)Nc1ccc(Cl)cc1Cl (stereo not given) | 7.9 µM
Cc1nc(N2CC(C)OC(C)C2)sc1C(=O)Nc1ccc2c(c1)OCO2 (stereo not given) | > 40 µM (inactive)
CCc1cccc(CC)c1-n1c(SCC(=O)NC(=O)NCc2ccco2)nnc1-c1cccnc1 | 0.79 µM
Cc1cc(C#N)c([N+](=O)[O-])cc1Br | 4 µM
CC(C)Nc1nc(Cl)nc2ccccc12 | 13 µM
Cc1c(C(C)NC(=O)Nc2cccc(Cl)c2)sc2ncnn12 (stereo not given) | > 40 µM (inactive)
O=C(NCc1nnc2n1CCCCC2)c1ccc(-c2ccc(F)cc2)o1 | 0.25 µM
CS(=O)(=O)N1CCC(Nc2ncc(Br)c(Nc3cccc(F)c3C(N)=O)n2)CC1 | 0.016 µM
COc1ccc(NS(=O)(=O)c2cccc(NC(=O)c3cc(F)cc(F)c3)c2)cc1 | 1 µM
COc1ncc(-c2ccc3ncnc(N4CCOCC4)c3c2)cc1NS(C)(=O)=O | 0.5 µM
CCCc1nc2nc(N)nc(N)c2cc1CC | 25 µM
CC(C)(C)C(O)(CCc1ccc(Cl)cc1)Cn1cncn1 (stereo not given) | > 40 µM (inactive)
N#CN1CC[C@@H](NC(=O)Nc2ccccc2Oc2ccccc2)C1 | 7.9 µM
O=C(Nc1nc(-c2ccc(S(=O)(=O)N3CCOCC3)cc2)cs1)c1ccc([N+](=O)[O-])cc1 | 10 µM
Cc1nnnn1-c1cccc(C(=O)N2CCC[C@@]3(C)c4ncncc4CCC23)c1 (stereo not given in full) | > 40 µM (inactive)
O=C(Nc1cccc(Cl)c1)Nc1ccc([N+](=O)[O-])cc1Cl | 3.2 µM
Cc1ccccc1OCC(=O)N1CCCN(c2cccnn2)CC1 | > 40 µM (inactive)
CS(=O)(=O)c1ccc(Nc2nccc(Nc3n[nH]c4ccc(F)cc34)n2)c(F)c1 | 0.79 µM
Cc1cc(Oc2cc(Cl)c(Cl)cc2Cl)n2ncnc2n1 | 0.4 µM
c1ccc(CCNCc2cncc3nc(-c4cnccn4)n(C4CCCCC4)c23)cc1 | > 40 µM (inactive)
O=C(c1cc2cc(Cl)ccc2[nH]1)N1CCCCC1c1cccnc1 (stereo not given) | 16 µM
Cc1ccc(NC(=O)C(C)n2nc([N+](=O)[O-])c(Br)c2C)cc1Cl (stereo not given) | > 40 µM (inactive)

Structure (SMILES) | IC50
Cc1cc2nc(N3CC[C@H]3C(N)=O)nc(Nc3cc(C4CC4)[nH]n3)c2s1 | 0.13 µM
O=C1CN(Cc2ccco2)C2CS(=O)(=O)CC2N1c1ccc(Cl)cc1 (stereo not given) | 0.25 µM
CCOc1cnn(C)c(=O)c1Nc1ccc(C(=O)NCc2ccc(F)cc2)cc1 | > 40 µM (inactive)
Clc1ccc(OCCN2CCCCC2c2cccnc2)c(Cl)c1 (stereo not given) | > 40 µM (inactive)
Cc1cc(NC(=O)C2CCCCC2)n(-c2nc3c(c(=O)[nH]2)CCC3)n1 | 0.16 µM
COc1ccc2ncc(Cl)c(CCN3CC[C@@H](NCc4cc5c(cn4)OCS5)[C@H](O)C3)c2n1 | 0.4 µM
O=c1[nH]ccc2ccc(-c3ccncc3)cc12 | > 40 µM (inactive)
CCNc1cc(-c2ccccn2)nc(Nc2ccccc2)n1 | 13 µM
COc1ccc(-c2csc(NC(=O)c3ccc([N+](=O)[O-])s3)n2)cc1OC | 0.63 µM
CC(c1ccc2c(c1)CCCC2)N(C)c1ncc2c(N)nc(N)nc2n1 (stereo not given) | 13 µM
CC(CNS(=O)(=O)c1ccc(OC(F)F)cc1)c1ccc(NC(=O)c2ccncc2)cc1 (stereo not given) | 20 µM
O=C1OCc2ccc(Nc3nccc(-c4cnn5ncccc45)n3)cc21 | 0.02 µM
FC(F)(F)c1cc(C2CCCN(Cc3c[nH]c4ccccc34)C2)nc2ncnn12 (stereo not given) | > 40 µM (inactive)
NCC(Cc1ccccc1)NC(=O)c1cnc(-c2c[nH]c3ncccc23)s1 (stereo not given) | 1 µM
O=c1[nH]c(NCCCNCc2cc(Br)cc(Br)c2)nc2ccsc12 | 0.1 µM
Cc1ccc(S(=O)(=O)Cn2nnnc2C(c2cccnc2)N2CCN(c3ccccc3)CC2)cc1 (stereo not given) | > 40 µM (inactive)
CC1CN(Cc2ccc(C#N)cc2)CCN1c1ccc(NC(=O)c2ccccc2F)cc1 (stereo not given) | > 40 µM (inactive)
CC(=O)Nc1ccc(Nc2nccc(-c3cnn4ncccc34)n2)cc1C(F)(F)F | 0.05 µM
COc1ccccc1C1CC(c2ccc(NS(C)(=O)=O)cc2)=NN1C(=O)c1cccs1 (stereo not given) | 20 µM
O=C(NCC1CCCCC1)c1cnns1 | 1.3 µM
COc1ccc(S(=O)(=O)Nc2ccc(C(=O)Nc3nc(-c4ccccn4)cs3)cc2)cc1 | 0.63 µM
COc1ccc(S(=O)(=O)NCc2ccc(-c3ccc(CN(C)CCO)cc3)cc2)cc1 | 3.2 µM
COc1ccc2ncc(=O)n(CCN3CCC(NCc4ccc(-c5cccs5)cc4)CC3)c2n1 | 6.3 µM
CCn1nccc1CN(C)C(=O)C=Cc1ccc(Cl)cc1 | > 40 µM (inactive)
NC(=O)c1ccccc1Nc1nc(NC2CCCCC2)nc2[nH]ccc12 | 10 µM
COc1cccc(NS(=O)(=O)c2ccc3[nH]cc(C(=O)NCCC(C)C)c(=O)c3c2)c1 | 0.63 µM
O=S1N=C(NCCCN(Cc2ccc(F)cc2)c2ccccn2)C(NCc2ccncc2)=N1 (stereo not given) | 0.5 µM

Structure (SMILES) | IC50
Cc1cc(NC(=O)CC2CCCCC2)n(-c2nc3c(c(=O)[nH]2)CCC3)n1 | 0.16 µM
CNc1cncc(C2CCCN2C(=O)Cc2ccc3ccccc3c2)n1 (stereo not given) | > 40 µM (inactive)
CCN(CC)S(=O)(=O)c1ccc(C)c(NC(=O)c2cc(Cl)c3c(c2)OCO3)c1 | 0.16 µM
CCc1c(C)nc(-n2nc(C)cc2NC(=O)COc2ccccc2F)[nH]c1=O | 0.2 µM
O=C(NCCc1ccccn1)C(c1cn[nH]c1)N1CCN(c2ccc(Cl)c(Cl)c2)CC1 (stereo not given) | > 40 µM (inactive)
Cc1ccccc1NS(=O)(=O)c1ccc2[nH]cc(C(=O)NC3CCCC(C)C3C)c(=O)c2c1 (stereo not given) | 0.63 µM
c1ccc(-c2nc(NCc3ccco3)c3ccccc3n2)nc1 | 6.3 µM
CCOc1cc(NCCCN2CCN(C)CC2)c2ncccc2c1 | 20 µM
Cc1c(Nc2cc(C3CC3)[nH]n2)ccc(C#N)c1Cl | 0.63 µM
CN(C)S(=O)(=O)c1cccc(CSc2nnc(-c3ccc4c(c3)OCO4)o2)c1 | > 40 µM (inactive)
C=CCN(Cc1cccs1)C(=O)CSc1nnc(-c2ccc3c(c2)OCO3)o1 | 40 µM
NC(=O)c1ncc(N[C@@H]2CCCNC2)nc1Nc1cccc(Cl)c1 | 0.2 µM
Cc1ccc(CNC2CCN(C[C@@H]3Cn4c(=O)ccc5ccc(=O)n3c54)CC2)cc1F | 2 µM
N#Cc1ccc(C(=O)Nc2cccc(-c3cccc(CN4CCC(O)CC4)c3)c2)cc1 | 0.79 µM
COc1cc(F)c2ncc(F)c(CCN3CC[C@H](NCc4cc5c(cn4)OCS5)[C@@H](O)C3)c2c1 | 0.5 µM
Clc1cc(Br)ccc1OCCCCn1ccnc1 | 20 µM
c1ccc2[nH]c(-c3ccc(N4CCCC4)nc3)nc2c1 | 1 µM
COc1cccc2sc(CN(C)C(=O)C3CNCCN3c3ccc(F)cc3)c(C)c12 (stereo not given) | 0.25 µM
COc1ccc(-c2cc(C)no2)cc1S(=O)(=O)Nc1ccc(C)c(C)c1 | 20 µM
CCCc1cc(N)nc(-c2cc(CCC)cc(N)n2)c1 | 7.9 µM
Cc1ncsc1CNc1cnc(-c2ccc3c(c2)OCCO3)c(-c2cnn(C)c2)c1 | 0.2 µM
O=c1ccn(-c2ccc([N+](=O)[O-])cc2Cl)c2ccc(F)cc12 | > 40 µM (inactive)
Cc1ccc2nc(N(Cc3cccnc3)C(=O)CCc3ccccc3)sc2c1 | 20 µM
Cc1nc(N2CCC(C(=O)N3CCC(O)(c4cccnc4)CC3)CC2)nc2ccc(C(C)C)cc12 | 32 µM
